Measurements as given in patent US20060069132A1, “Azolecarboxamide herbicides” (priority 2004, published 2006).

Columns and labels:
lambsquarters = experiment: Test B pre-/postemergence herbicide test; format: in vivo, Chenopodium album
Procedure, shortened: (§1)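 Evaluation is visual, comparing treated with control plants on a scale where 0 means no effect and 100 means full control. Treatments were preemergence, or postemergence on seedlings 2–18 cm tall, and held 13–15 days in the greenhouse.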

morningglory = experiment: Test B pre-/postemergence herbicide test; format: in vivo, Ipomoea coccinea
Procedure, shortened: (§2)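 Seeds were planted and treated preemergence with compounds formulated in a non-phytotoxic solvent mixture containing surfactant, while plants at the 1- to 4-leaf stage (2 to 18 cm) received postemergence sprays. Flooded paddy plants were grown to the 2-leaf stage. After 13 to 15 days in a greenhouse, injury was visually rated 0–100 against untreated controls.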

pigweed = experiment: Test B pre-/postemergence herbicide test; format: in vivo, Amaranthus retroflexus
Procedure, shortened: as §1

wild oat = experiment: Test B postemergence herbicide test; format: in vivo, Avena fatua; details: scale 0 (no effect) to 100 (complete control)
Procedure, shortened: (§3)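 Scale 0–100: zero equals no visible effect, 100 complete control, judged by eye relative to controls. Timing: 13 to 15 days in greenhouse post-treatment. Growth stage at spraying: two leaves (paddy) or one to four leaves, 2–18 cm (postemergence).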

Surinam grass = experiment: Test B pre-/postemergence herbicide test; format: in vivo, Urochloa decumbens
Procedure, shortened: as §1

cocklebur = experiment: Test B pre-/postemergence herbicide test; format: in vivo, Xanthium strumarium
Procedure, shortened: as §2

corn = experiment: Test B pre-/postemergence herbicide test; format: in vivo, Zea mays
Procedure, shortened: as §1

giant foxtail = experiment: Test B pre-/postemergence herbicide test; format: in vivo, Setaria faberi
Procedure, shortened: as §1

barnyardgrass [1] = experiment: Test B pre-/postemergence herbicide test; format: in vivo, Echinochloa crus-galli
Procedure, shortened: as §2

velvetleaf = experiment: Test B pre-/postemergence herbicide test; format: in vivo, Abutilon theophrasti
Procedure, shortened: as §1

ducksalad = experiment: Test B flooded paddy test; format: in vivo, Heteranthera limosa; details: 1000 g ai/ha, scale 0 to 100 (0 no effect, 100 complete control)
Procedure, shortened: (§4)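 Postemergence plants were sprayed with formulated test chemicals at 2 to 18 cm height (1- to 4-leaf stage); paddy species were grown to the 2-leaf stage. After 13 to 15 days in a greenhouse, injury was rated visually against untreated controls on a 0–100 scale (0 = no effect, 100 = complete control).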

barnyardgrass [2] = experiment: Test B flooded paddy test; format: in vivo, Echinochloa crus-galli; details: 1000 g ai/ha, scale 0 to 100 (0 no effect, 100 complete control)
Procedure, shortened: as §4

blackgrass = experiment: Test B postemergence herbicide test; format: in vivo, Alopecurus myosuroides; details: for Blackgrass plant response rating: postemergence
Procedure, shortened: as §4

wheat = experiment: Test B postemergence herbicide test; format: in vivo, Triticum aestivum; parameters: key to Wheat plant response rating: 0 = no effect, 100 = complete control
Procedure, shortened: as §3

[3] = tested on: small flower umbrella sedge; experiment: Test B flooded paddy test; format: in vivo, Cyperus difformis; details: 1000 g ai/ha, scale 0 to 100 (0 no effect, 100 complete control)
Procedure, shortened: as §4

rice = experiment: Test B flooded paddy test; format: in vivo, Oryza sativa; details: 1000 g ai/ha, scale 0 to 100 (0 no effect, 100 complete control)
Procedure, shortened: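 Each value is a visual 0–100 response rating taken against controls 13 to 15 days after treatment in the greenhouse. Plants received formulated chemical postemergence at the 1- to 4-leaf stage or, in flooded paddy, at the 2-leaf stage.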

large crabgrass = experiment: Test B pre-/postemergence herbicide test; format: in vivo, Digitaria sanguinalis
Procedure, shortened: as §1

[4] = Postemergence, 500 g ai/ha, visual rating after 13 to 15 days, scale 0 (no effect) to 100 (complete control)
[5] = Preemergence, 500 g ai/ha, scale 0 to 100
[6] = 125 g ai/ha, 0 is no effect, 100 is complete control, preemergence
[7] = 125 g ai/ha, visual rating, scale 0 (no effect) to 100 (complete control), postemergence
[8] = Postemergence, 500 g ai/ha, scale 0 (no effect) to 100 (complete control)
[9] = postemergence, 500 g ai/ha, scale 0 to 100, 0 is no effect, 100 is complete control

## CCNC(=O)c1cccc(NC(=O)c2cc(C(C)(C)C)nn2CC(C)C)c1 [Compound 42]
lambsquarters; [4]
  Plant response rating, Lambsquarters: 70
lambsquarters; [5]
  Lambsquarters plant response rating: 80
morningglory; [4]
  Plant response rating, Morningglory: 50
morningglory; [5]
  Morningglory plant response rating: 10
pigweed; [4]
  Plant response rating, Pigweed: 70
pigweed; [5]
  Pigweed plant response rating: 40
Wild oat; Postemergence, 500 g ai/ha, visual rating after 13 to 15 days
  Plant response rating, Oat, Wild: 20
Surinam grass; [4]
  Plant response rating, Surinam Grass: 20
Surinam grass; [5]
  Surinam Grass plant response rating: 20
cocklebur; [4]
  Plant response rating, Cocklebur: 20
cocklebur; [5]
  Cocklebur plant response rating: 0
corn; [4]
  Plant response rating, Corn: 20
corn; [5]
  Corn plant response rating: 0
Giant foxtail; [4]
  Plant response rating, Foxtail, Giant: 10
Giant foxtail; [5]
  Foxtail, Giant plant response rating: 10
Barnyardgrass [1]; [4]
  Plant response rating, Barnyardgrass: 20
Barnyardgrass [1]; [5]
  Barnyardgrass plant response rating: 30
velvetleaf; [4]
  Plant response rating, Velvetleaf: 60
velvetleaf; [5]
  Velvetleaf plant response rating: 10
ducksalad; visual rating, 13 to 15 days
  Ducksalad plant response rating: 50
Barnyardgrass [2]; visual rating, 13 to 15 days
  Barnyardgrass plant response rating: 0
blackgrass; [4]
  Plant response rating, Blackgrass: 10
wheat; [4]
  Plant response rating, Wheat: 20
[3]; visual rating, 13 to 15 days
  Sedge, Umbrella plant response rating: 50
rice; visual rating, 13 to 15 days
  Rice plant response rating: 0
Large crabgrass; [4]
  Plant response rating, Crabgrass, Large: 70
Large crabgrass; [5]
  Crabgrass, Large plant response rating: 70

## CCc1nn(C(C)(C)C)nc1C(=O)Nc1cc(C(=O)N2CCCCC2)ccc1F [Compound 381]
lambsquarters; [6]
  Plant response rating (0 to 100 scale), Lambsquarters: 40
lambsquarters; [7]
  Lambsquarters plant response rating: 70
lambsquarters; [8]
  Lambsquarters plant response rating: 80
morningglory; [6]
  Plant response rating (0 to 100 scale), Morningglory: 0
morningglory; [7]
  Morningglory plant response rating: 20
morningglory; [8]
  Morningglory plant response rating: 80
pigweed; [6]
  Plant response rating (0 to 100 scale), Pigweed: 0
pigweed; [7]
  Pigweed plant response rating: 20
pigweed; [8]
  Pigweed plant response rating: 30
Wild oat; 125 g ai/ha, visual rating, postemergence
  Oat, Wild plant response rating: 10
Wild oat; Postemergence, 500 g ai/ha
  Oat, Wild plant response rating: 20
Surinam grass; [6]
  Plant response rating (0 to 100 scale), Surinam Grass: 20
Surinam grass; [7]
  Surinam Grass plant response rating: 10
Surinam grass; [8]
  Surinam Grass plant response rating: 40
cocklebur; [6]
  Plant response rating (0 to 100 scale), Cocklebur: 0
cocklebur; [7]
  Cocklebur plant response rating: 20
cocklebur; [9]
  Cocklebur plant response rating: 20
corn; [6]
  Plant response rating (0 to 100 scale), Corn: 0
corn; [7]
  Corn plant response rating: 0
corn; [9]
  Corn plant response rating: 10
Giant foxtail; [6]
  Plant response rating (0 to 100 scale), Foxtail, Giant: 10
Giant foxtail; [7]
  Foxtail, Giant plant response rating: 10
Giant foxtail; [9]
  Foxtail, Giant plant response rating: 20
Barnyardgrass [1]; [6]
  Plant response rating (0 to 100 scale), Barnyardgrass: 10
Barnyardgrass [1]; [7]
  Barnyardgrass plant response rating: 0
Barnyardgrass [1]; [9]
  Barnyardgrass plant response rating: 0
velvetleaf; [6]
  Plant response rating (0 to 100 scale), Velvetleaf: 10
velvetleaf; [7]
  Velvetleaf plant response rating: 10
velvetleaf; [8]
  Velvetleaf plant response rating: 40
ducksalad
  Ducksalad plant response rating: 70
Barnyardgrass [2]
  Barnyardgrass plant response rating: 10
blackgrass; 125 g ai/ha, visual rating, scale 0 (no effect) to 100 (complete control)
  Blackgrass plant response rating: 20
blackgrass; 500 g ai/ha, scale 0 to 100, 0 is no effect, 100 is complete control
  Blackgrass plant response rating: 30
wheat; [7]
  Wheat plant response rating: 10
wheat; 500 g ai/ha, scale 0 to 100, 0 no effect, 100 complete control, preemergence
  Wheat plant response rating: 20
wheat; [8]
  Wheat plant response rating: 20
[3]
  Sedge, Umbrella plant response rating: 70
rice
  Rice plant response rating: 60
Large crabgrass; [6]
  Plant response rating (0 to 100 scale), Crabgrass, Large: 70
Large crabgrass; [7]
  Crabgrass, Large plant response rating: 10
Large crabgrass; [9]
  Crabgrass, Large plant response rating: 20
